Experimental data reported in ChEMBL document CHEMBL3885861, “Open TG-GATES”.

Species: Rattus norvegicus
Assay: Open TG-GATES - Regimen: Daily Repeat
Type: toxicity, organism-based, Sprague-Dawley
Set-up: regimen Daily Repeat, gender Male, age 6 weeks
Conditions: in vivo, po, route gavage; for TP / gamma-GTP / ALP / ALT / AST / BUN / CRE / Ca / Cl / DBIL / GLC / IP / K / LDH / Na / PL / RALB / TBIL / TC / TG: tissue Plasma; for APTT / Bas / Eos / Fbg / Hb / Ht / Lym / MCH / MCV / Mono / Neu / PT / Plat / RBC / Ret / WBC / MCHC: tissue Blood; for KIDNEY_L / KIDNEY_R / KIDNEY_TOTAL: tissue Kidney; for LIVER: tissue Liver
[1] = 100 mg/kg, […], dose level Low, time 28 day
[2] = 300 mg/kg, 72 h, dose level Middle, time 3 day
[3] = 300 mg/kg, […], dose level Middle, time 7 day
[4] = 300 mg/kg, […], dose level Middle, time 14 day
[5] = 300 mg/kg, […], dose level Middle, time 28 day
[6] = 1000 mg/kg, 72 h, dose level High, time 3 day
[7] = 1000 mg/kg, […], dose level High, time 7 day
[8] = 1000 mg/kg, […], dose level High, time 14 day
[9] = 1000 mg/kg, […], dose level High, time 28 day

**Q.** What does the source list for CCOc1ccc(NC(C)=O)cc1 [PHENACETIN]?
**A.** TP [1]: 6.4 g/dL; gamma-GTP [1]: 1 IU/L; TERMINAL_BW [2]: 224.3 g; APTT [2]: 21.5 s; Bas [2]: 0%; Eos [2]: 1.2%; Fbg [2]: 290.8 mg/dL; Hb [2]: 13.5 g/dL; Ht [2]: 40.7%; Lym [2]: 75.2%; MCH [2]: 19.9 pg; MCV [2]: 60.1 fL; Mono [2]: 3.4%; Neu [2]: 19.4%; PT [2]: 13.4 s; Plat [2]: 119.3 x10_4/uL; RBC [2]: 678.8 x10_4/ul; Ret [2]: 4.8%; WBC [2]: 98.2 x10_2/uL; KIDNEY_L [2]: 1 g; KIDNEY_R [2]: 1 g; KIDNEY_TOTAL [2]: 2 g; LIVER [2]: 11.1 g; ALP [2]: 1609.6 IU/L; ALT [2]: 39.2 IU/L; AST [2]: 66.2 IU/L; BUN [2]: 13 mg/dL; CRE [2]: 0.2 mg/dL; Ca [2]: 11.1 mg/dL; Cl [2]: 104.8 meq/L; DBIL [2]: 0.01 mg/dL; GLC [2]: 166 mg/dL; IP [2]: 6.9 mg/dL; K [2]: 4 meq/L; LDH [2]: 69.4 IU/L; Na [2]: 143.2 meq/L; PL [2]: 174.4 mg/dL; RALB [2]: 2.7 g/dL; TBIL [2]: 0.044 mg/dL; TC [2]: 80.4 mg/dL; TG [2]: 145.4 mg/dL; TP [2]: 5.7 g/dL; gamma-GTP [2]: 1 IU/L; TERMINAL_BW [3]: 262.8 g; TERMINAL_BW [4]: 306 g; TERMINAL_BW [5]: 397.8 g; APTT [3]: 17.4 s; Bas [3]: 0%; Eos [3]: 1%; Fbg [3]: 302.6 mg/dL; Hb [3]: 13.3 g/dL; Ht [3]: 40.1%; Lym [3]: 71.8%; MCH [3]: 20 pg; MCV [3]: 60.2 fL; Mono [3]: 2.8%; Neu [3]: 24.2%; PT [3]: 13.3 s; Plat [3]: 122.3 x10_4/uL; RBC [3]: 666.2 x10_4/ul; Ret [3]: 6.7%; WBC [3]: 103.2 x10_2/uL; Bas [4]: 0.2%; Eos [4]: 1%; Fbg [4]: 273.2 mg/dL; Lym [4]: 74.4%; MCH [4]: 19.9 pg; MCHC [4]: 33.5%; MCV [4]: 59.3 fL; Mono [4]: 2.2%; Neu [4]: 21.8%; PT [4]: 13.1 s; Plat [4]: 125.2 x10_4/uL; RBC [4]: 696.6 x10_4/ul; Ret [4]: 6.5%; WBC [4]: 128 x10_2/uL; APTT [5]: 21.1 s; Bas [5]: 0.2%; Eos [5]: 1.2%; Fbg [5]: 262.4 mg/dL; Hb [5]: 14.4 g/dL; Ht [5]: 42.5%; Lym [5]: 76.4%; MCH [5]: 19.1 pg; MCHC [5]: 33.8%; MCV [5]: 56.4 fL; Mono [5]: 1.8%; PT [5]: 13.7 s; Plat [5]: 103.8 x10_4/uL; RBC [5]: 754.2 x10_4/ul; Ret [5]: 4.9%; WBC [5]: 159.4 x10_2/uL; KIDNEY_L [3]: 1.2 g; KIDNEY_R [3]: 1.1 g; KIDNEY_TOTAL [3]: 2.3 g; KIDNEY_L [4]: 1.2 g; KIDNEY_R [4]: 1.2 g; KIDNEY_TOTAL [4]: 2.5 g; KIDNEY_L [5]: 1.4 g; KIDNEY_R [5]: 1.4 g; KIDNEY_TOTAL [5]: 2.9 g; LIVER [4]: 12.6 g; ALP [3]: 1712.6 IU/L; ALT [3]: 39.4 IU/L; AST [3]: 64.6 IU/L; CRE [3]: 0.2 mg/dL; Ca [3]: 11 mg/dL; Cl [3]: 104.2 meq/L; DBIL [3]: 0.008 mg/dL; GLC [3]: 177.8 mg/dL; IP [3]: 6.9 mg/dL; K [3]: 4.3 meq/L; LDH [3]: 79.4 IU/L; PL [3]: 174.4 mg/dL; RALB [3]: 2.7 g/dL; TBIL [3]: 0.048 mg/dL; TC [3]: 81.6 mg/dL; TG [3]: 149 mg/dL; TP [3]: 5.9 g/dL; gamma-GTP [3]: 1.4 IU/L; ALP [4]: 1577.4 IU/L; ALT [4]: 37.2 IU/L; AST [4]: 63 IU/L; BUN [4]: 14.2 mg/dL; CRE [4]: 0.2 mg/dL; Ca [4]: 10.7 mg/dL; DBIL [4]: 0.02 mg/dL; GLC [4]: 181.8 mg/dL; IP [4]: 6.3 mg/dL; K [4]: 4.3 meq/L; LDH [4]: 159.2 IU/L; Na [4]: 144.2 meq/L; PL [4]: 162.2 mg/dL; RALB [4]: 2.7 g/dL; TBIL [4]: 0.086 mg/dL; TC [4]: 78.4 mg/dL; TG [4]: 91.2 mg/dL; TP [4]: 5.9 g/dL; gamma-GTP [4]: 1 IU/L; ALP [5]: 1081 IU/L; ALT [5]: 40 IU/L; AST [5]: 63 IU/L; BUN [5]: 14.4 mg/dL; CRE [5]: 0.3 mg/dL; Cl [5]: 105.6 meq/L; DBIL [5]: 0.02 mg/dL; GLC [5]: 175.4 mg/dL; IP [5]: 5.9 mg/dL; K [5]: 4.1 meq/L; LDH [5]: 53.2 IU/L; Na [5]: 145 meq/L; PL [5]: 156.2 mg/dL; RALB [5]: 2.8 g/dL; TBIL [5]: 0.074 mg/dL; TC [5]: 70.2 mg/dL; TG [5]: 122.8 mg/dL; TP [5]: 6.2 g/dL; gamma-GTP [5]: 1 IU/L; TERMINAL_BW [6]: 201.2 g; Bas [6]: 0%; Eos [6]: 0.8%; Fbg [6]: 283.2 mg/dL; Hb [6]: 12.6 g/dL; Ht [6]: 37.2%; Lym [6]: 69.4%; MCH [6]: 19.9 pg; MCHC [6]: 33.9%; MCV [6]: 58.8 fL; Mono [6]: 3.2%; Neu [6]: 26%; PT [6]: 13.3 s; Plat [6]: 131.8 x10_4/uL; RBC [6]: 633.4 x10_4/ul; Ret [6]: 1.5%; WBC [6]: 108.7 x10_2/uL; KIDNEY_L [6]: 1 g; KIDNEY_R [6]: 0.9 g; KIDNEY_TOTAL [6]: 1.9 g; LIVER [6]: 11 g; ALP [6]: 1479.6 IU/L; ALT [6]: 43.2 IU/L; AST [6]: 73.6 IU/L; BUN [6]: 17.8 mg/dL; CRE [6]: 0.2 mg/dL; Ca [6]: 11 mg/dL; DBIL [6]: 0.024 mg/dL; GLC [6]: 154.6 mg/dL; IP [6]: 6.3 mg/dL; K [6]: 4.4 meq/L; LDH [6]: 77.6 IU/L; Na [6]: 143.8 meq/L; PL [6]: 202.4 mg/dL; RALB [6]: 2.7 g/dL; TBIL [6]: 0.092 mg/dL; TC [6]: 111.8 mg/dL; TG [6]: 87.4 mg/dL; TP [6]: 5.9 g/dL; gamma-GTP [6]: 1.4 IU/L; TERMINAL_BW [7]: 234.8 g; TERMINAL_BW [8]: 283.3 g; TERMINAL_BW [9]: 363.6 g; APTT [7]: 22.5 s; Bas [7]: 0.4%; Eos [7]: 0.4%; Fbg [7]: 319.6 mg/dL; Ht [7]: 33.4%; Lym [7]: 62.2%; MCH [7]: 22.7 pg; MCHC [7]: 31.2%; MCV [7]: 72.7 fL; Mono [7]: 3%; Neu [7]: 33.4%; PT [7]: 13.6 s; Plat [7]: 156.2 x10_4/uL; RBC [7]: 463.8 x10_4/ul; Ret [7]: 17.7%; WBC [7]: 178.5 x10_2/uL; APTT [8]: 19 s; Bas [8]: 0.2%; Eos [8]: 0.8%; Fbg [8]: 263.6 mg/dL; Ht [8]: 43.1%; Lym [8]: 72%; MCH [8]: 25.1 pg; MCHC [8]: 32%; MCV [8]: 78.4 fL; Mono [8]: 3.2%; Neu [8]: 23.6%; PT [8]: 13.7 s; Plat [8]: 108.2 x10_4/uL; RBC [8]: 550.4 x10_4/ul; WBC [8]: 119.8 x10_2/uL; APTT [9]: 18.1 s; Bas [9]: 0%; Eos [9]: 1%; Fbg [9]: 251.2 mg/dL; Hb [9]: 13.7 g/dL; Lym [9]: 66.8%; MCH [9]: 24.3 pg; MCHC [9]: 33.3%; MCV [9]: 72.8 fL; Mono [9]: 3.2%; Neu [9]: 28.4%; Plat [9]: 106.4 x10_4/uL; RBC [9]: 566.6 x10_4/ul; Ret [9]: 11.5%; WBC [9]: 134.5 x10_2/uL; KIDNEY_L [7]: 1.1 g; KIDNEY_R [7]: 1.1 g; KIDNEY_TOTAL [7]: 2.2 g; KIDNEY_L [8]: 1.3 g; KIDNEY_R [8]: 1.3 g; KIDNEY_TOTAL [8]: 2.5 g; KIDNEY_L [9]: 1.5 g; KIDNEY_R [9]: 1.5 g; KIDNEY_TOTAL [9]: 3 g; LIVER [7]: 11.9 g; LIVER [8]: 13.2 g; ALP [7]: 1794.2 IU/L; ALT [7]: 46.4 IU/L; AST [7]: 73.2 IU/L; BUN [7]: 16 mg/dL; CRE [7]: 0.2 mg/dL; Ca [7]: 11 mg/dL; Cl [7]: 104.8 meq/L; DBIL [7]: 0.04 mg/dL; GLC [7]: 167.4 mg/dL; IP [7]: 5.9 mg/dL; K [7]: 4.5 meq/L; LDH [7]: 81.4 IU/L; Na [7]: 144 meq/L; PL [7]: 172.4 mg/dL; RALB [7]: 2.7 g/dL; TBIL [7]: 0.2 mg/dL; TC [7]: 75.6 mg/dL; TG [7]: 160 mg/dL; TP [7]: 6 g/dL; gamma-GTP [7]: 1.2 IU/L; ALP [8]: 1457 IU/L; ALT [8]: 43.2 IU/L; AST [8]: 68 IU/L; CRE [8]: 0.2 mg/dL; Ca [8]: 10.8 mg/dL; Cl [8]: 103.8 meq/L; DBIL [8]: 0.036 mg/dL; GLC [8]: 168.8 mg/dL; IP [8]: 6.2 mg/dL; K [8]: 4.5 meq/L; LDH [8]: 154 IU/L; Na [8]: 143.2 meq/L; PL [8]: 176.6 mg/dL; RALB [8]: 2.7 g/dL; TBIL [8]: 0.1 mg/dL; TC [8]: 81.6 mg/dL; TG [8]: 171.4 mg/dL; TP [8]: 5.9 g/dL; gamma-GTP [8]: 1.4 IU/L; ALP [9]: 1375.4 IU/L; ALT [9]: 51.4 IU/L; AST [9]: 72.2 IU/L; BUN [9]: 21.4 mg/dL; CRE [9]: 0.3 mg/dL; Ca [9]: 10.8 mg/dL; Cl [9]: 102.8 meq/L; DBIL [9]: 0.038 mg/dL; GLC [9]: 157 mg/dL; IP [9]: 6.6 mg/dL; K [9]: 4.4 meq/L; LDH [9]: 70.8 IU/L; Na [9]: 145.2 meq/L; PL [9]: 171 mg/dL; RALB [9]: 2.8 g/dL; TBIL [9]: 0.1 mg/dL; TC [9]: 81.2 mg/dL; TG [9]: 125.6 mg/dL; TP [9]: 6.3 g/dL; gamma-GTP [9]: 1.2 IU/L
